Tests used:
[1] = Sensory expert panel time-intensity evaluation (sweetness intensity over time); assay type: in vivo, human
Experimental: The samples were evaluated by a panel of (˜15) prescreened, highly-sensitive, trained and calibrated expert tasters: The parameters quantified included Sweetness profile over time (Sweetness intensity with time after intake), Linger (Area under the sweetness intensity vs. time curve (AUC) from 60 to 150 or to 300 seconds), Linger time (Delta time from initial- to zero sweetness), Ratio of the Intensity at 60 seconds to the maximal intensity, Linger T50: Time to reach 50% of the maximal sweetness, Linger T10: Time to reach 10% of the maximal sweetness. The qualitative similarity of the taste to that of sugar was also evaluated, to describe attributes other than time-intensity profile.
Dilute citrate buffer was prepared in mineral water. […]
All micro-patched SP (MP-SP) were evaluated for sweetness intensity over time. The sensory panelists for the evaluation were screened for sensitivity for small differences in sweetness intensity and other basic tastes (saltiness, sourness, and bitterness), as well as sensory memory. These screening tests were performed according to ISO standards (IS 8586). The sensory expert panel was professionally trained and continuously assessed as to reproducibility and capability to differentiate between standard samples.
Sensory Method—Time Intensity (Measuring Sweetness Intensity Over Time): • 1. The products were tasted by an expert panel. • 2. Panelists were calibrated first with sugar solutions on a scale of 0-100 (magnitude estimation), while 0=not sweet at all. Calibration solutions used were 4% sucrose (defined as 50 sweetness) and 8% (defined as 100 sweetness grade). • 3. After calibration, the tasters preformed time-intensity evaluation for each sample according to the following stages: • a. After giving a signal, all tasters put the sample in their mouth, rolled it in their oral cavity for 2 seconds, and then swallowed. • b. After swallowing, the guide measured times, and at each time point, the taster was asked to grade the currently sensed sweetness intensity on the same scale (0-100) until the taste has disappeared. • c. The time periods examined were: 1, 2, 5, 7, 10, 15, 30, 45, 60, 90, 120, 150, 180, 210, 240, 270, and 300 seconds. • 4. Each panelist tasted a total of 6 products: SP standalone and four ratios of EGCG+SP tasted in varying orders. Sucrose solution (8Bx) was always tasted at the end. • 5. All the tested products were served using code numbers. • 6. Before and between samples, the tasters were requested to rinse their mouth with mineral water, eat an unsalted cracker and a cucumber, and drink water again. • 7. 11-15 tasters participated in these tests.

[2] = Meta-analysis of sensory panel meetings: four measures of lingering; assay type: in vivo, human; conditions: summary of Example 4
Experimental: The meta-analysis was based on 44 sensory panel meetings and 55 MP agents. Statistical analysis was conducted. Four measures of lingering were defined: • AUC—the area under the time-intensity curve from 60 seconds to 300 seconds. • I60/max—the ratio between the intensity recorded at 60 seconds and the maximum intensity recorded. • T50—the time in seconds at which intensity recorded was 50% of the maximal intensity recorded • T10—the time in seconds at which intensity recorded was 10% of the maximal intensity recorded
Each graph refers to a single parameter. The graphs show means and standard errors for the MP agents that show significant improvement compared to the control (DM09 alone). The standard errors are calculated according to all the data in the Meta analysis (including data that are not shown in the graph).
The mean for the protein without MP agents is colored black.

epigallocatechin-3-gallate [EGCG, reference compound]
Sweetness profile over time (sweetness intensity) ([1]; EGCG with MNEI 0.08 mg/ml, 8 Bx, vs MNEI alone and sucrose, FIG. 1): significantly improved the sweetness profile of SP
Sweetness profile of DM09 (lingering effect) [2]: decreasing the lingering effect

CC1(C)[C@@H](O[C@H]2O[C@H](C(=O)O)[C@@H](O)[C@H](O)[C@H]2O[C@@H]2O[C@H](C(=O)O)[C@@H](O)[C@H](O)[C@H]2O)CC[C@]2(C)[C@H]3C(=O)C=C4[C@@H]5C[C@@](C)(C(=O)O)CC[C@]5(C)CC[C@@]4(C)[C@]3(C)CC[C@@H]12.N [Mono Ammonium Glycyrrhizinate, monoammonium glycyrrhizinate, reference compound]
Sweetness profile over time (sweetness-intensity-vs.-time curve, lingering effect) ([1]; DM09 0.02 mg/ml, 8 Bx sugar equivalence level, vs DM09 alone): decreasing the lingering effect

OC[C@H]1O[C@@](CO)(O[C@H]2O[C@H](CO)[C@@H](O)[C@H](O)[C@H]2O)[C@@H](O)[C@@H]1O [sucrose, reference compound]
Typical linger of sugar ([1]; in vivo): ~60 s

B1: DM09: designer monellin, SEQ ID NO: 3; the sweet protein (SP) of Example 5 (protein)
chain: GNWEIIDIGPFTQNLGKFAVDEANKIGQYGRLTFNKVIRPCMKKTIYENEGFREIKGYEYQLYVRASDKLFRADISEDYKTRGRKLLRFNGPVPPP
Linger time (Delta time (in sec) from initial to 0 sweetness intensity) ([1]; DM09 0.02 mg/ml, 8 Bx sugar equivalence level, vs DM09 alone, P<0.05): significantly higher than the delta time of DM09:lactisole:tannic acid:ammonium Glycyrrhizinate
Linger time (Delta time (in sec) from initial to 0 sweetness intensity) ([1]; DM09 0.02 mg/ml, 8 Bx sugar equivalence level, vs DM09 alone, P<0.05, listed as DM09 only): significantly higher than the delta time of Quillija:DM09 (26:1)
Linger (sweetness-intensity-vs.-time curve) ([1]; sweet protein with gymnemic acids and/or maltodextrin, FIG. 15): longest linger time

B2: MNEI: single chain Monellin (MNEI) reference protein, SEQ ID NO: 28 (protein)
chain: GEWEIIDIGPFTQNLGKFAVDEENKIGQYGRLTFNKVIRPCMKKTIYENEGFREIKGYEYQLYVYASDKLFRADISEDYKTRGRKLLRFNGPVPPP
Linger (AUC of the sweetness-intensity vs. time, 60-150 seconds) ([1]; MNEI, 8 Bx, P<0.05, FIG. 2): significantly higher than the AUC of EGCG:MNEI (60:1)
